Experiment [1] can be described thus: Dose-response inhibition of insulin secretion in a rat insulinoma line at 5 mM glucose (AID 1117331). In kind it is functional, cell-based. Conditions: INS-1E.
The nature of the next experiment: cells. Conditions: INS-1E. In kind it is functional, cell-based.
A short description of experiment [2]: HeLa 4N DNA content increase, dose response, cell-based, IC50 (AID 1117351). In kind it is functional.
A short description of experiment [3]: HeLa 2N DNA content increase, dose response, cell-based, IC50 (AID 1117349). In kind it is functional.
The target of a further experiment is Protein Tat (Human immunodeficiency virus type 1 group M subtype B (isolate HXB2)(HIV-1), UniProt P04608). In kind it is functional.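 Also: tat binding to TAR RNA read out by fluorescence polarization.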
Sequence of Protein Tat (P04608 whole entry): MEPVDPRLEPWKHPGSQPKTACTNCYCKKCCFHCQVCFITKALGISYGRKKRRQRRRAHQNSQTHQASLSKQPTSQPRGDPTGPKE
Experiment [4] addresses T1, Low molecular weight phosphotyrosine protein phosphatase (Homo sapiens, UniProt P24666).
T1 sequence (P24666 whole entry): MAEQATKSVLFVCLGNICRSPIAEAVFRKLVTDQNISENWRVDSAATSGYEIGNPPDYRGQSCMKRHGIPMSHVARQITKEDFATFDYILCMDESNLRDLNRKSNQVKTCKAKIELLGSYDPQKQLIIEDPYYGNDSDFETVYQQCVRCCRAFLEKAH
As to the kind of experiment: LMPTP phosphatase inhibitors, colorimetric pNPP readout, dose response, orthogonal assay, biochemical, absorbance, pNPP substrate, LMPTP-A isoform, set 2 (AID 743308). The format is functional.

For experiment [5], the target named is T1, Low molecular weight phosphotyrosine protein phosphatase. Kind of experiment: LMPTP phosphatase inhibitors, dose response, biochemical, OMFP substrate, fluorescence intensity, set 2 (AID 743307). In kind it is functional.
The nature of experiment [6]: P. falciparum Dd2 blood-stage growth inhibition, dose response, SYBR Green fluorescence, erythrocytes, dry powder, set 2 (AID 1159574). In kind it is functional, cell-based.
Experiment [7] addresses Voltage-gated inwardly rectifying potassium channel KCNH2 (Homo sapiens, UniProt Q12809). Kind of experiment: hERG protection from proarrhythmic block, potency, dose response, cell-based, thallium flux (AID 2121). In kind it is ADME. (In general: hERG is a cardiac potassium channel; its block is linked to QT prolongation.)
Experiment [8] addresses T2, Bcl-2-related protein A1 (Mus musculus, UniProt Q07440).
T2 sequence (Q07440 whole entry): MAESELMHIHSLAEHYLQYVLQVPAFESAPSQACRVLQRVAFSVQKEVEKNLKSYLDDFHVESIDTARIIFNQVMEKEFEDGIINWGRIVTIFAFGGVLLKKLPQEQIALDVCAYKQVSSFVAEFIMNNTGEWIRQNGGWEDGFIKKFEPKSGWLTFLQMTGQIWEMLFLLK
Kind of experiment: Bfl-1 inhibitors blocking BH3 peptide binding, confirmation, biochemical, TR-FRET, mouse Bfl-1 (AID 621). (In general: Time-resolved FRET reads energy transfer from a long-lived donor to a nearby acceptor.)

Experiment [9] has as its target T2, Bcl-2-related protein A1. Kind of experiment: Bfl-1 binding inhibitors, SAR follow-up, biochemical, fluorescence polarization (AID 1070). On the technique in general: Polarisation of emitted light reports the rotation of a fluorescent probe.
Experiment [10] concerns the target Glyceraldehyde-3-phosphate dehydrogenase (Homo sapiens, UniProt P04406).

The source made the active and inactive calls.

The term IC50 denotes the concentration needed to halve the response being measured. One may read the AC50 as the concentration giving half of the maximal activity seen. In general, EC50 refers to the concentration that produces a half-maximal response.

Sequence of Glyceraldehyde-3-phosphate dehydrogenase (P04406 whole entry): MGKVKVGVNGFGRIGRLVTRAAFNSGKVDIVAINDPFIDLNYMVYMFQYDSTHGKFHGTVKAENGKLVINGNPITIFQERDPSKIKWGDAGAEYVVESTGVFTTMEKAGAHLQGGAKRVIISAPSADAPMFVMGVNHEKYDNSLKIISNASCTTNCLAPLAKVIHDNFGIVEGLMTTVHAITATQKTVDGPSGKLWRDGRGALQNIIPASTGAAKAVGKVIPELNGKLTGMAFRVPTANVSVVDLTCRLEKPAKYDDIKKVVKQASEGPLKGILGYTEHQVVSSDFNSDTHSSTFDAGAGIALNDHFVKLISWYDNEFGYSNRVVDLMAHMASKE
Sequence of Voltage-gated inwardly rectifying potassium channel KCNH2 (Q12809 whole entry): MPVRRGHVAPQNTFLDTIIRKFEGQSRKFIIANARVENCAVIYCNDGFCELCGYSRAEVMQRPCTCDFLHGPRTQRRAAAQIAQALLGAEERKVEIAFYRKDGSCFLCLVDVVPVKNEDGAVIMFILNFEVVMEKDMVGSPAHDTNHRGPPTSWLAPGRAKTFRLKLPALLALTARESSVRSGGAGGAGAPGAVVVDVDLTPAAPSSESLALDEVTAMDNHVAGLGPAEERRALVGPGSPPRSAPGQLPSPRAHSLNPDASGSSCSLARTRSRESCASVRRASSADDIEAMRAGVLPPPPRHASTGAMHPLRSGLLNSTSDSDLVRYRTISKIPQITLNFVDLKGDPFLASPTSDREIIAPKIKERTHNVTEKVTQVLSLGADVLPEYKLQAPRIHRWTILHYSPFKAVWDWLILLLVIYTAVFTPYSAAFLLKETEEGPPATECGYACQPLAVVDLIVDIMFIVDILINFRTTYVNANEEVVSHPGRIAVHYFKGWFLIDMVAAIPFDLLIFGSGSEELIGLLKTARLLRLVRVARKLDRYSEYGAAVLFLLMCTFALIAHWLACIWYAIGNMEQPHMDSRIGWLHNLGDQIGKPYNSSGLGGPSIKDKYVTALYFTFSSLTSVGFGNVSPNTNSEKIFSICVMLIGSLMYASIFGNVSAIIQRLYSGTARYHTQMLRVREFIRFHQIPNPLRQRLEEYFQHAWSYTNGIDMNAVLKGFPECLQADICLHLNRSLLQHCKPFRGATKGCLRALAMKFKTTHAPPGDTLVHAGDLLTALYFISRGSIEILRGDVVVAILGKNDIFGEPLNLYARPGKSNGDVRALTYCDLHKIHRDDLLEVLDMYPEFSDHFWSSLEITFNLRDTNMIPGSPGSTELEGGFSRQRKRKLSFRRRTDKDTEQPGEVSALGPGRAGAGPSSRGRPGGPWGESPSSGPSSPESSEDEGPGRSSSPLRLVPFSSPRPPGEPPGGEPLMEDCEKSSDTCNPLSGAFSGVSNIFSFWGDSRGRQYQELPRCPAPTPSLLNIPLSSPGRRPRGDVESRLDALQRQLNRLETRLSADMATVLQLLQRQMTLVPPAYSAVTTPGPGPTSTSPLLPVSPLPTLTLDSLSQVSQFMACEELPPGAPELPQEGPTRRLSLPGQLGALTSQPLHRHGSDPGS

Regarding `Cc1ccc(CCn2c3c(c4cc(Cl)ccc42)CN(C)CC3)cn1` [DORASTINE], the IC50 in experiment [1] was 4.2 µM (active); in “cells”, > 33.3 µM (inactive); in experiment [2], > 10 µM (inactive); in [3], > 10 µM (inactive).
For the compound `O=C(NCCN1CCN(c2ccccc2)CC1)C1CCN(S(=O)(=O)c2cccc3nonc23)CC1`, on Protein Tat, the half-maximal inhibitory concentration (IC50) is > 100 µM (active).
As to `COc1ccccc1-c1cc(NCCCN2CCCCC2)c2ccccc2n1`, the concentration for half-maximal inhibition (IC50) is 7.13 µM (active) in experiment [4] and 2.87 µM (active) in experiment [5].
As for `COc1cccc(C#Cc2ccc([C@@H]3[C@@H](CO)N4C(=O)CN(C(=O)Cc5ccccc5)C[C@@H]34)cc2)c1`, the AC50 in experiment [6] was 4.88 µM (active).
As for `CCOc1ccccc1NC(=O)C(=O)CC(=O)c1ccc(OC)cc1`, in experiment [7], the EC50 is 3.01 µM (active).
Turning to `O=C1C(Cl)=C(N2CCOCC2)C(=O)N1c1c(Cl)cccc1Cl`, the values for the concentration for half-maximal inhibition (IC50) (at Bcl-2-related protein A1 [8]; at Bcl-2-related protein A1 [9]; in [10]) were > 100 µM (not active), > 100 µM (not active) and > 10 µM (inconclusive), respectively.

The values are drawn from ChEMBL document CHEMBL1201862, “PubChem BioAssay data set” (2004).
